In patent publication US8519136B2, “Aminopyridine derivatives having aurora a selective inhibitory action” (MSD K.K., priority 2008, dated 2013):
Where a name gives a salt, the structure may show the parent alone.

Tests used:
[1] = target: T1, His-tagged human Aurora A (Homo sapiens, UniProt O14965); assay: Aurora A inhibitory activity (IMAP fluorescence polarization); type: biochemical; conditions: 20 μM ATP, 30° C., 120 minutes
T1 construct: His (N); made in house; host or cells: Escherichia coli BL21-CodonPlus(DE3)-RIL
T1 sequence (O14965 1-403): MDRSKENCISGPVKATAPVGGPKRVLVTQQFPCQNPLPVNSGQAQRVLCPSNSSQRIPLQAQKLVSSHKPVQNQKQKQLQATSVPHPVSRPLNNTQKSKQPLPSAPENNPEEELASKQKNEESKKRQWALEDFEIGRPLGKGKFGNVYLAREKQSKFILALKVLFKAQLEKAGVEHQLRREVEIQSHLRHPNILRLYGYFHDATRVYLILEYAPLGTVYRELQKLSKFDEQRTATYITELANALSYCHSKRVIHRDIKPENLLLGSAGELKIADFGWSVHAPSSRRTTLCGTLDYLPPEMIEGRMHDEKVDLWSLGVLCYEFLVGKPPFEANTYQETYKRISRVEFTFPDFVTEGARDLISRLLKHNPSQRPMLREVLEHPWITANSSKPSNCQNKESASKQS
Source text: cDNA of N-terminal His-tagged human Aurora A was integrated into an expression vector, which was then highly expressed in Escherichia coli BL21-CodonPlus(DE3)-RIL cells. The Escherichia coli was harvested and lysed, and then the His-tagged human Aurora A protein was applied onto a nickel chelate column and eluted from the column with imidazole. The active fractions were desalted with a desalting column to give a purified enzyme.
For measurement of the activity of Aurora A, the substrate used was a synthetic peptide (5-FAM (5-carboxyfluorescein)-γ-aminobutyric acid-Ala-Leu-Arg-Arg-Ala-Ser-Leu-Gly-NH2) (SEQ.ID.NO.: 1), which was purchased from Toray Research Center, Inc.
For the phosphorylation reaction, the method by Upstate, Inc. [Kinase Profiler™ Assay Protocols] was referred to, and phosphorylation of the substrate was detected using IMAP® technology (Molecular Devices, Co. Ltd.) (Gaudet E W. et. al, J. Biomol. Screen, 8, 164-175 (2003)). Concretely, the phosphorylation reaction and the detection were carried out as follows:
The phosphorylation reaction was conducted using 384 well plate, and the reaction volume was 10 μl/well. The reaction buffer is comprised of 50 mM Tris-chloride buffer (pH 7.4), 15 mM magnesium acetate, and 0.2 mM ethylenediamine-N,N,N′,N′-tetraacetic acid (EDTA). Thereto, the purified Aurora A protein, 100 nM of the peptide substrate, and 20 μM of adenosine 5′-triphosphate (ATP) were added, and then the reaction was carried out at 30° C. for 120 minutes.
Thereafter, in order to terminate and detect the reaction, 30 μl of the IMAP (registered trademark) binding reagent (IMAP Progressive Binding Reagent, R7284) that had been diluted (1:400) in the 1×IMAP binding buffer A (IMAP Progressive Binding Buffer A, 5× stock, R7282) was added to each well. The solution stood still for 60 minutes in the dark, and then fluorescence polarization was measured using a high-end microplate reader (excitation wavelength: 485 nm; emission wavelength: 520 nm).
(§1) The compound to be tested was added to the reaction system such that a dilution series of the compound in dimethylsulfoxide (DMSO) was prepared, and then 0.5 μL of this solution was added for the testing to each well. Each control well was provided by adding 0.5 μL of DMSO to the well in place of the DMSO solution containing the compound to be tested.

[2] = target: T2, GST-tagged human Aurora B(AurB)/His-tagged human INCENP complex proteins (Homo sapiens, UniProt Q96GD4); assay: Aurora B inhibitory activity (Method A, IMAP kit); type: biochemical; conditions: 40 μM ATP, 25° C., 45 minutes
T2 construct: GST; purchased Carna Biosciences, Inc
T2 sequence (Q96GD4 whole entry): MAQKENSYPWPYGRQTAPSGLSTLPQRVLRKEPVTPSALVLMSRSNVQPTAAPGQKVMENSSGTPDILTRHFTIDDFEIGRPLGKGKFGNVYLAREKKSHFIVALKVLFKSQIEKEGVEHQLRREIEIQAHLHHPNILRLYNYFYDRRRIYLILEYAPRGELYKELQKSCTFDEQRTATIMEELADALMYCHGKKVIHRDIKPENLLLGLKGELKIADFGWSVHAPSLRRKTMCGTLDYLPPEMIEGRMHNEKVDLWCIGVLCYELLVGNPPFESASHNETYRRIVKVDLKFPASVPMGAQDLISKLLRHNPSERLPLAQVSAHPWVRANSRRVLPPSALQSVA
T2 sequence (Q9NQS7 803-916 partner limits assumed): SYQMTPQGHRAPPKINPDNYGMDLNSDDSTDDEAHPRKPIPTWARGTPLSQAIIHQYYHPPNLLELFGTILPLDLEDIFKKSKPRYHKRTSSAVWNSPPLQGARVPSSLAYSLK
Method: An assay development kit for IMAP (registered trademark) (Aurora B), purchased from Carna Biosciences, Inc., was used for phosphorylation reaction, and the phosphorylation of a substrate was detected using the IMAP technology. The assay development kit used is comprised of an assay buffer, GST-tagged human Aurora B(AurB)/His-tagged human INCENP complex proteins (amino acid sequence: 803-916, AAU04398.1), and an ATP/substrate solution. Using the same, the phosphorylation reaction was conducted in accordance with a partially revised protocol attached to the kit, and then the phosphorylation of the substrate was detected using the IMAP technology.
For the phosphorylation reaction, 384 well plate was used, and the reaction volume was 10 μl/well. The composition of the reaction buffer (assay buffer) is comprised of 20 mM of HEPES buffer (pH 7.4), 0.01% Tween-20, and 2 mM of dithiothreitol (DTT). Thereto, AurB/INCENP complex protein, 100 nM of the substrate, and 40 μM of ATP, and 1 mM of magnesium salt were added, and then the reaction was conducted at 25° C. for 45 minutes. Thereafter, in order to terminate and detect the reaction, 30 μl of the IMAP (registered trademark) binding reagent (IMAP Progressive Binding Reagent, R7284) that had been diluted (1:400) in the 1×IMAP binding buffer A (IMAP Progressive Binding Buffer A, 5× stock, R7282) was added to each well. The solution stood still for 60 minutes in the dark, and then fluorescence polarization was measured using a high-end microplate reader (excitation wavelength: 485 nm; emission wavelength: 520 nm).
as §1, with “DMSO” for “dimethylsulfoxide (DMSO)”

Row | IC50 [1] | IC50 [2] | Structure (SMILES)
1 | 1.14 nM | > 1000 nM | CCOC(=O)C1(Cc2cccc(Nc3cc[nH]n3)n2)CCN(C(=O)c2cccc(Cl)c2F)CC1 [Example 4, ethyl 1-(3-chloro-2-fluorobenzoyl)-4-((6-(1H-pyrazol-3-ylamino)pyridin-2-yl)methyl)piperidine-4-carboxylate]
2 | 0.63 nM | 555 nM | CCOC(=O)C1(Cc2cccc(Nc3cc[nH]n3)n2)CCN(C(=O)c2cccc(C(F)(F)F)c2F)CC1 [Example 5, ethyl 1-(2-fluoro-3-(trifluoromethyl)benzoyl)-4-((6-(1H-pyrazol-3-ylamino)pyridin-2-yl)methyl)piperidine-4-carboxylate]
3 | 1.57 nM | > 1000 nM | NC(=O)C1(Cc2cccc(Nc3cc[nH]n3)n2)CCN(C(=O)c2cccc(Cl)c2F)CC1 [Example 6, 1-(3-chloro-2-fluorobenzoyl)-4-((6-(1H-pyrazol-3-ylamino)pyridin-2-yl)methyl)piperidine-4-carboxamide]
4 | 0.61 nM | 135 nM | NC(=O)C1(Cc2cccc(Nc3cc[nH]n3)n2)CCN(C(=O)c2cccc(C(F)(F)F)c2F)CC1 [Example 7, 1-(2-fluoro-3-(trifluoromethyl)benzoyl)-4-((6-(1H-pyrazol-3-ylamino)pyridin-2-yl)methyl)piperidine-4-carboxamide]
5 | 0.79 nM | 555 nM | CONC(=O)C1(Cc2cccc(Nc3cc[nH]n3)n2)CCN(C(=O)c2cccc(C(F)(F)F)c2F)CC1 [Example 8, 1-(2-fluoro-3-(trifluoromethyl)benzoyl)-N-methoxy-4-((6-(1H-pyrazol-3-ylamino)pyridin-2-yl)methyl)piperidine-4-carboxamide]

Further lines, the compound ahead of its results:

Row | Structure (SMILES) | IC50 [1] | IC50 [2]
6 | Cc1cc(Nc2cc[nH]n2)nc(CC2CCN(C(=O)c3cccc(Cl)c3F)CC2)n1 [Example 3, 2-((1-(3-chloro-2-fluorobenzoyl)piperidin-4-yl)methyl)-6-methyl-N-1H-pyrazol-3-ylpyrimidin-4-amine trifluoroacetate] | 1.6 nM | 400 nM
7 | O=C(c1cccc(F)c1F)N1CCC(Cc2cccc(Nc3cc[nH]n3)n2)(c2n[nH]c(=O)o2)CC1 [Example 11, 5-(1-(2,3-difluorobenzoyl)-4-((6-(1H-pyrazol-3-ylamino)pyridin-2-yl)methyl)piperidin-4-yl)-1,3,4-oxadiazol-2(3H)-one trifluoroacetate] | 0.26 nM | 236 nM
8 | O=c1[nH]nc(C2(Cc3cccc(Nc4cc[nH]n4)n3)CCN(S(=O)(=O)c3cccc(Cl)c3Cl)CC2)o1 [Example 13, 5-(1((2,3-dichlorophenyl)sulfonyl)-4((6-(1H-pyrazol-3-ylamino)pyridin-2-yl)methyl)piperidin-4-yl)-1,3,4-oxadiazol-2(3H)-one trifluoroacetate] | 2.55 nM | 609 nM
9 | Cc1cc(Nc2cccc(CC3(c4n[nH]c(=O)o4)CCN(C(=O)c4cccc(Cl)c4F)CC3)n2)n[nH]1 [Example 15, 5-(1-(3-chloro-2-fluorobenzoyl)-4-((6-((5-methyl-1H-pyrazol-3-yl)amino)pyridin-2-yl)methyl)piperidin-4-yl)-1,3,4-oxadiazol-2(3H)-one] | 0.25 nM | 77.5 nM
10 | Cc1cc(Nc2cccc(CC3(c4n[nH]c(=O)o4)CCN(C(=O)c4cccc(F)c4F)CC3)n2)n[nH]1 [Example 16, 5-(1-(2,3-difluorobenzoyl)-4-((6-((5-methyl-1H-pyrazol-3-yl)amino)pyridin-2-yl)methyl)piperidin-4-yl)-1,3,4-oxadiazol-2(3H)-one] | 0.41 nM | 157 nM
11 | Cc1cc(Nc2cc[nH]n2)nc(CC2(C(N)=O)CCN(C(=O)c3cccc(Cl)c3F)CC2)n1 [Example 18, 1-(3-chloro-2-fluorobenzoyl)-4-((4-methyl-6-(1H-pyrazol-3-ylamino)pyrimidin-2-yl)methyl)piperidine-4-carboxamide trifluoroacetate] | 1.23 nM | > 1000 nM
